Measured values from patent publication US20220324909A1, “THERAPEUTIC PEPTIDES” (COHBAR, INC., priority 2019, published 2022).
Non-standard residues stand in square brackets, D forms with d. No end group written: not given here.

Legend:
C2C12 cells = assay: Cell proliferation in C2C12 cells (Cyquant DNA dye binding); assay type: cell-based, mouse; settings: peptide 10 μM, 72 hours with readdition every 24 hours, relative to 0.1% DMSO control
Method: The effect of the peptides on cell proliferation was assessed using a DNA dye binding assay in cultured cells such as mouse myoblast cells. Peptides were initially prepared as 10 mM stock in DMSO, diluted to 1 mM in H2O, and added at a final concentration of 10 μM (0.1% DMSO). Lovastatin was used as a growth arrest control at final concentration of 10 μM. […] C2C12 cells were grown in DMEM supplemented with 20% FBS with 100 IU/ml penicillin and 100 μg/ml streptomycin. […] C2C12 cells were seeded at 800 cells per well on 96-well plates. […] Cell proliferation was determined using Cyquant Direct Nucleic Acid Stain (Thermo Fisher Scientific, Waltham, Mass.) according to the manufacturer's instructions. Fluorescence for each sample well on the plate was measured using a Cytation 3 plate reader at Ex/Em=495/535 nm (BioTek, Winooski, Vt.). Activity was calculated relative to 0.1% DMSO untreated control. The relative standard deviation for the lovastatin control was <27%. The cell proliferation for the lovastatin control was <25% of the value for untreated control.

Male DIO mice = assay: Metabolic parameters in diet induced obese (DIO) mice, Example 16; assay type: in vivo, mouse; settings: 5 mg/kg twice daily intraperitoneal, 10 days, N = 8
Method: Male C57BL/6 mice were maintained on a high fat diet for 18 weeks to develop diet induced obesity. Animals were randomized to treatment groups based on blood glucose levels and body weight. The peptides of the invention were administered to groups of male DIO mice twice daily by intraperitoneal injection at a dose of 5 mg/kg/dose for 10 days (N=8 animals per treatment group). An additional group of male DIO mice (n=8) received vehicle (water) alone administered twice daily by intraperitoneal injection. Body weight, blood glucose levels and food intake were monitored. Body mass distribution (fat vs lean) was determined by quantitative whole body NMR prior to dosing and at the end of dosing.

3T3-L1 mouse adipocytes = assay: Free fatty acid levels in cultured 3T3-L1 mouse adipocytes and insulin dependence (Example 17); assay type: cell-based; settings: isoproterenol 0.1 nM; for Free Fatty Acid Levels, Percent of Isoproterenol Control Activity No Insulin: peptide 10 μM alone, relative to isoproterenol treated cells; for Free Fatty Acid Levels, Percent of Isoproterenol Control Activity With Insulin: peptide 10 μM with 0.25 nM insulin, relative to 0.25 nM insulin treated cells
H4-IIE cells = assay: Glucose production in cultured H4-IIE cells and insulin dependence; assay type: cell-based, rat; settings: 24 h; for Glucose Production, Percent of Control Activity No Insulin: peptide 10 μM alone, relative to untreated cells; for Glucose Production, Percent of Control Activity With Insulin: peptide 10 μM with 800 μM insulin, relative to insulin treated cells
Method in brief: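 Rat hepatoma cells incubated 24 h with peptides; glucose released into conditioned medium measured colorimetrically at 570 nm. Untreated cells serve as maximal-production reference, with insulin at […] as a modest inhibitor. Values are means of 2-4 independent experiments run in triplicate.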

Apelin Receptor (APJ) [1] = molecular target: T1, Apelin Receptor (APJ) (Homo sapiens, UniProt P35414); assay: cAMP levels in CHO-K1 AGTRL1 Gi cells, single concentration (HitHunter); assay type: cell-based; parameters: host or cells: CHO-K1 AGTRL1 Gi cells; settings: peptide 10 μM with 10 μM forskolin, 30 min; 500 nM Pyr-Apelin-13 response = 100%
T1 sequence (P35414 1-380): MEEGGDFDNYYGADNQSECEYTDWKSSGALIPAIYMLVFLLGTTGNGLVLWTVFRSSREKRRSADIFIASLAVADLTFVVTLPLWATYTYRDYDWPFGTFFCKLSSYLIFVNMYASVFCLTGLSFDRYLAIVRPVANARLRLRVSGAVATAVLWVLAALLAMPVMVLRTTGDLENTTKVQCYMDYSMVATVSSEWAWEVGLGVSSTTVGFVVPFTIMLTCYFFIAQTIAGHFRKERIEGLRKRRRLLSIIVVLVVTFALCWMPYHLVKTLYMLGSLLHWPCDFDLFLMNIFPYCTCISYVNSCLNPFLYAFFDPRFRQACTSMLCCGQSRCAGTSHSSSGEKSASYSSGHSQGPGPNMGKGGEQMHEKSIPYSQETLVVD
Method: The effect of the peptides on activation of Apelin Receptor (APJ) can be assessed using an assay to monitor inhibition of cAMP expression in cultured cells overexpressing APJ such as CHO-K1, derived from Chinese hamster ovary. Peptides were initially prepared as 30 mM stock in DMSO and diluted to 3 mM in H2O or directly as 3 mM stock in H2O; used at a final concentration of 10 μM (0-0.1% DMSO). […] CHO-K1 AGTRL1 Gi cells stably overexpressing APJ were purchased from Eurofins-DiscoverX (Fremont, Calif.). CHO-K1 AGTRL1 Gi cells were seeded onto 384-well plates in standard culture medium (F12K+10% Fetal Bovine Serum+antibiotics) at 10,000 cells/well and allowed to adhere overnight at 37° C. in a humidified atmosphere of 5% CO2/95% air. […] Following 30 min incubation at 37° C., cAMP levels in response to various treatments were quantified using HitHunter cAMP kit according to manufactures protocol (Eurofins-DiscoverX); chemiluminescent signal was measured using a Cytation 3 plate reader (BioTek, Winooski, Vt.).

Apelin Receptor (APJ) [2] = molecular target: T1, Apelin Receptor (APJ); assay: β-Arrestin recruitment in CHO-K1 AGTRL1 β-Arrestin cells (PathHunter); assay type: cell-based; parameters: host or cells: CHO-K1 AGTRL1 β-Arrestin cell line; settings: peptide 10 μM, 90 min; 500 nM Apelin-13 response = 100%
Method: The effect of the peptides on activation of Apelin Receptor (APJ) can be assessed using an assay to monitor β-Arrestin recruitment in cultured cells overexpressing APJ such as CHO-K1, derived from Chinese hamster ovary. β-Arrestin recruitment assays were performed by Eurofins-DiscoverX (Fremont, Calif.) using CHO-K1 AGTRL1 β-Arrestin cell line (co-expressing ProLink tagged human APJ and Enzyme Acceptor tagged β-Arrestin) and PathHunter detection kit. Peptides were initially prepared either as 10 mM stock in DMSO and used at a final concentration of 10 μM (0.1% DMSO). CHO-K1 AGTRL1 β-Arrestin cells were seed onto 384-well plates in standard medium. […] Following 90 min incubation at 37° C., β-Arrestin recruitment in response to various treatments was quantified using a chemiluminescent complementation reporter assay to measure association of tagged human APJ (ProLink tag) and tagged β-Arrestin (Enzyme Acceptor tag).

Compound	Cell Proliferation, Percent of Control (C2C12 cells)	Difference from Vehicle Control: Decrease from Baseline in Blood Glucose (Male DIO mice)	Difference from Vehicle Control: Decrease from Baseline in Body Weight (Male DIO mice)	Difference from Vehicle Control: Decrease from Baseline in Fat Mass (Male DIO mice)	Free Fatty Acid Levels, Percent of Isoproterenol Control Activity No Insulin (3T3-L1 mouse adipocytes)	Free Fatty Acid Levels, Percent of Isoproterenol Control Activity With Insulin (3T3-L1 mouse adipocytes)	Glucose Production, Percent of Control Activity No Insulin (H4-IIE cells)	Glucose Production, Percent of Control Activity With Insulin (H4-IIE cells)	cAMP Levels, Percent of Pyr-Apelin-13 Control Activity (Apelin Receptor (APJ) [1])	β-Arrestin Recruitment, Percent of Apelin-13 Control Activity (Apelin Receptor (APJ) [2])
10 (RRMMGMVYQCLCG[dA]; cysteine pairing not given here) [compound 10]	101.5%	-8.37 mg/dL	−5.47%	-2.16 g	97.9%	48.7%	92.2%	38.2%		
CSCC[C@H](NC(=O)CNC(=O)[C@H](CCSC)NC(=O)[C@H](CCSC)NC(=O)[C@H](CCCNC(=N)N)NC(=O)[C@H](CCCNC(=N)N)NC(=O)[C@@H](N)CCSC)C(=O)N[C@H](C(=O)N[C@@H](Cc1ccccc1)C(=O)N[C@@H](CCC(N)=O)C(=O)N[C@@H](CS)C(=O)N[C@@H](CC(C)C)C(=O)N[C@@H](CS)C(=O)NCC(=O)N[C@@H](CC(C)C)C(=O)O)C(C)C [compound 7]	94.0%	-20.0 mg/dL	−3.19%	-0.84 g	102%	71.3%	54.2%	64.2%	109%	91%
12 (RRMMGMVEQCLCG[dA]; cysteine pairing not given here) [compound 12]	119.3%	-6.75 mg/dL	−2.89%	-1.73 g	103%	54.6%	96.4%	44.8%		
11 (RRMMGMVAQCLCGA) [compound 11]	88.1%	-4.91 mg/dL	−4.05%	-2.34 g	104%	58.5%	96.6%	57.5%		
16 (RRMMGMVFQCLSG[dA]) [compound 16]	89.6%				110%	63.0%	99.8%	56.8%		
CSCC[C@H](NC(=O)CNC(=O)[C@H](CCSC)NC(=O)[C@H](CCSC)NC(=O)[C@H](CCCNC(=N)N)NC(=O)[C@@H](N)CCCNC(=N)N)C(=O)N[C@H](C(=O)N[C@@H](Cc1ccccc1)C(=O)N[C@@H](CCC(N)=O)C(=O)N[C@@H](CO)C(=O)N[C@@H](CC(C)C)C(=O)N[C@@H](CS)C(=O)NCC(=O)N[C@H](C)C(=O)O)C(C)C [compound 15]	93.5%				109%	89.0%	101.4%	63.9%	105%	40%
13 (RRMMGMVFQELCG[dA]) [compound 13]	90.0%				105%	56.4%	100.9%	68%		
8 (RRMMGMVFQCLCG[dA]; cysteine pairing not given here) [compound 8]	98.1%	-16.9 mg/dL	−8.01%	-3.88 g	106%	57.8%	78.9%	102.8%		
19 (RRMVFQCLCG[dA]; cysteine pairing not given here) [compound 19]	92.3%				105%	79.0%	100.8%	68.9%		
14 (RRMMGMVFQCLEG[dA]) [compound 14]	97.2%				100%	51.0%	104.4%	159.6%		
18 (RRXXGXVFQCLCGA; (3)..(3) Xaa is Norleucine; (4)..(4) Xaa is Norleucine; (6)..(6) Xaa is Norleucine; (14)..(14) D-Ala) [compound 18]	74.9%				110%	81.1%	103.1%	140.4%		
17 (RRMMGMVFQSLSG[dA]) [compound 17]	89.1%				98.4%	87.7%	101.7%	95.5%		
